From PubChem BioAssay AID651630 (Sanford-Burnham Center for Chemical Genomics, 2012)
Active and inactive are the calls of the source.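 The calls were made as follows: active = lipid-stain IC50 at or below a set limit, with nuclear-stain toxicity IC50 at least five times higher; inactive = the rest.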

Key:
[1] = tested on: TAG; assay: TAG lipid buildup inhibition with viability readout – cell-based, panel, Nile Red and DAPI fluorescence, H9c2, dose response (AID 651630); details: H9c2 cells, Nile Red TAG fluorescence, oleic acid;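 also: cells exposed to compound overnight before fixation and staining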
[2] = tested on: DAPI; assay: as above; details: H9c2 cells, DAPI nuclear fluorescence (cytotoxicity counter-readout), oleic acid

Structure (SMILES)	IC50 ([1]; run 1) [µM]	IC50 ([1]; run 2) [µM]	IC50 cytotoxicity (DAPI nuclear signal decrease) ([2]; mean of runs)	IC50 cytotoxicity (DAPI nuclear signal decrease) ([2]; run 1) [µM]	IC50 cytotoxicity (DAPI nuclear signal decrease) ([2]; run 2) [µM]	IC50 ([1]; mean of runs)
COc1cccc(Cn2c3ccc(NC(=O)CCc4ccc(F)cc4)cc3c(=O)n2C)c1	20.9	> 25	> 25 µM (inactive)	> 25	> 25	
Cc1cccc2c(N=Nc3ccc(S(=O)(=O)Nc4ccc(Cl)cc4)cc3[N+](=O)[O-])c(O)[nH]c12	16.5	7.89	> 25 µM (inactive)	> 25	> 25	12.2 µM
COc1ccc(CNC(=O)c2ccc(N3CCC4(CC3)CC(c3ccc(Cl)cc3)=NO4)c(NC(=O)Cc3ccc(F)cc3)c2)cc1	> 25	> 25	> 25 µM (inactive)	> 25	> 25	> 25 µM (inactive)
COc1cc(C#Cc2c(-c3cncn3C)n(C)c3ccc(-c4ccc5[nH]ccc5c4)cc23)cc(OC)c1	3.78	4.6		> 25	> 25	4.19 µM
COc1ccc(CCn2c(-n3nc(C)cc3C)nc3c2c(=O)[nH]c(=O)n3C)cc1	> 25	> 25	> 25 µM (inactive)	> 25	> 25	> 25 µM (inactive)
Cc1ccc(NC(=O)c2nc[nH]c2C(=O)NCCCCCCNC(=O)c2[nH]cnc2C(=O)Nc2ccc(C)cc2)cc1	8.97	9.09	> 25 µM (inactive)	> 25	> 25	9.03 µM
CCOC(=O)[C@H]1[C@H]2COc3ccc(Br)cc3[C@@H]2N2C(=O)c3cc(Br)ccc3NC(=O)[C@@]12C	> 25	> 25	> 25 µM (inactive)	> 25	> 25	> 25 µM (inactive)
Cc1cccc2sc(NC(=O)C3CCCN(S(=O)(=O)c4cccc5nonc45)C3)nc12 (stereo unspecified)	12.2	8.72	> 25 µM (inactive)	> 25	> 25	10.5 µM
COC(=O)c1cc(C(=O)N2CCN(c3cccc(Cl)c3)CC2)cc([N+](=O)[O-])c1	22.4	> 25	> 25 µM (inactive)	> 25	> 25	
NC(Cc1ccc(F)cc1)c1csc(Nc2ccc(C(F)(F)F)cn2)n1 (stereo unspecified)	> 25	8.35		> 25	23.8	
CCCCCC(=O)Nc1nc(C)c(-c2csc(Nc3cc(OC)ccc3OC)n2)s1	13.3	15.8	> 25 µM (inactive)	> 25	> 25	14.6 µM
N#CCC(=O)N/N=C/c1cn(Cc2ccc(Cl)c(Cl)c2)c2ccccc12	19.9	> 25	> 25 µM (inactive)	> 25	> 25	
COc1ccc(-c2nn(-c3ccccc3)cc2/C=C/C(=O)OCC(=O)Nc2ccccc2C#N)cc1	16.5	> 25	> 25 µM (inactive)	> 25	> 25	
COc1cc(CNC(=O)Nc2nc(C(N)Cc3ccc(Cl)cc3)cs2)cc(OC)c1OC (stereo unspecified)	3.31	4.5		> 25	> 25	3.91 µM
Cc1nn2c(N3CCN(C)CC3)c3c(nc2c1-c1ccccc1)CCCC3	> 25	> 25	> 25 µM (inactive)	> 25	> 25	> 25 µM (inactive)
Nc1ccc2ccccc2c1N=Nc1ccccc1	8.88	10.1	> 25 µM (inactive)	> 25	> 25	9.51 µM
NC(N)=Nc1ccc(C=C2C=Cc3ccccc32)cc1	12.6	11.1	22.8 µM (inactive)	21.2	24.5	11.8 µM
CCOC(=O)c1c(C)[nH]c(C(=O)OCC(=O)NCCc2ccc(OCC)c(OCC)c2)c1C	> 25	> 25	> 25 µM (inactive)	> 25	> 25	> 25 µM (inactive)
CC1(C)CCCN(Cc2c(O)ccc3c(=O)c(-c4nc5ccccc5s4)c(N)oc23)C1	10	10	> 25 µM (inactive)	> 25	> 25	10 µM
Cc1onc(NC(=O)c2ccc([N+](=O)[O-])o2)c1Br	> 25	> 25	> 25 µM (inactive)	> 25	> 25	> 25 µM (inactive)
COC(=O)/C=C/c1ccccc1S(=O)(=O)N(Cc1ccccc1)Cc1ccco1	> 25	> 25	> 25 µM (inactive)	> 25	> 25	> 25 µM (inactive)
COC(=O)c1cc(C(=O)N2CCN(c3ccccc3OC)CC2)cc([N+](=O)[O-])c1	11.8	14.5	> 25 µM (inactive)	> 25	> 25	13.2 µM
Cc1ccc2nc3n(c(=O)c2c1)-c1cc2ccccc2cc1C(=O)NC3Cc1ccc(O)cc1 (stereo unspecified)	24.9	> 25	> 25 µM (inactive)	> 25	> 25	
O=C(Cc1coc2ccc3ccccc3c12)Nc1nccs1	> 25	> 25	> 25 µM (inactive)	> 25	> 25	> 25 µM (inactive)
Cc1ccc(Sc2cc(N3CCOCC3)nc(-c3ccccc3)n2)cc1	> 25	> 25	> 25 µM (inactive)	> 25	> 25	> 25 µM (inactive)
